Tests used:
[1] = test system: [3H]diazepam binding to heart tissue; conditions: cited from earlier work
[2] = test system: guinea pig heart preparation; conditions: cited from earlier work
[3] = test system: isolated cardiac and smooth muscle; conditions: cited from earlier work
[4] = dogs; cited from earlier work
[5] = test system: isolated perfused Langendorf rat heart; conditions: cited from earlier work
[6] = test system: isolated rat heart preparation; conditions: cited from earlier work
[7] = following intravenous administration; cited from earlier work
PTBR = PTBR (Homo sapiens, UniProt P30536); conditions: cited from earlier work
PTBR, sequence (P30536 whole entry): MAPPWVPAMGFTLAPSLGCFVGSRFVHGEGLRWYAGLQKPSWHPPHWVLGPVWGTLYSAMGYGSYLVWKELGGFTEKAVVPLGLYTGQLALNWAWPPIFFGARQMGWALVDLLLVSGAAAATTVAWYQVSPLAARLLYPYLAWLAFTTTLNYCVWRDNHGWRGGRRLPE

[8] = test system: neonatal rat cardiomyocytes; assay: Hypertrophic response of neonatal rat cardiomyocytes (conclusions over all readouts); format: cell-based
[9] = test system: isolated working rat heart; conditions: cited from earlier work
human atrial strips = conditions: cited from earlier work
[10] = test system: neonatal rat cardiomyocytes; assay: ANP synthesis (competition binding ELISA of culture supernatants) in neonatal rat cardiomyocytes; format: cell-based
[11] = test system: neonatal rat cardiomyocytes; assay: Protein synthesis ([3H]phenylalanine incorporation) in neonatal rat cardiomyocytes; format: cell-based
Description: Neonatal rat ventricular cardiomyocytes were isolated from one or two days old rat pups using the following reagents and isolation procedure:
When cardiomyocytes undergo hypertrophy several biochemical parameters can be monitored. There is an increase in protein synthesis and atrial natriuretic peptide (ANP) synthesis and an upregulation of the β-myosin heavy chain gene. These three parameters were used to assess the effects of ligands of the peripheral-type benzodiazepine receptor (PTBR) upon neonatal rat cardiomyocytes.
Protein synthesis is assessed by including radiolabelled amino acids in the experimental incubation medias (i.e., [^3H]phenylalanine) at the end of the incubation the cell monolayer is washed with phosphate bufered saline, fized with 10% TCA and lysed with 0.25N NaOH. The total cell lysate is then assessed for tritium contant by scintillation spectrometry.
a. Neonatal rat cardiomyocytes were cultured in 24-well plates for 24 hours in serum-free medium. Medium was then removed and replaced with experimental culture medium containing [^3H]phenylalanine (10 μCi/ml) and either the PTBR agonist Ro5-4864 (RBI, MA, USA) in a concentration range of 10^−12-10^−8 M, or the PTBR antagonist PK11195 (RBI, MA, US) in a concentration range of 10^−12-10^−8 M. Control incubations received [^3H]phenylalanine (10 μCi/ml) containing medium alone. Cell cultures were returned to the incubator for a further 48 hour incubation after which time the cell culture supernatants were harvested for ANP analysis and the cell monolayers were prepared for assessment of tritium incorporation. […] However, at concentrations greater than or equal to 10^−11 M, the PTBR agonist Ro5-4864 caused a three-fold increase in protein synthesis and a five-fold increase in ANP synthesis. Data are expressed as the mean+/−standard deviations of quadruplet samples.
b. Neonatal rat cardiomyocytes were cultured in 24-well plates for 24 hours in serum-free medium. Medium was then removed and replaced with experimental culture medium containing [^3H]phenylalanine (10 μCi/ml) and either the PTBR agonist Ro5-4864 (RBI, MA, USA) in a concentration range of 10^−12-10^−8 M, or the PTBR antagonist PK11195 (RBI, MA, US) at a concentration of 10^−10 M. Control incubations received [^3H]phenylalanine (10 μCi/ml) containing medium alone. Cell cultures were returned to the incubator for a further 48 hour incubation after which time the cell culture supernatants were harvested for ANP analysis and the cell monolayers were prepared for assessment of tritium incorporation. […] Data are expressed as the mean+/−standard deviations of quadruplet samples.

β-MHC promoter = assay: β-MHC promoter-luciferase reporter in neonatal rat cardiomyocytes; format: cell-based; conditions: greater than or equal to 10^-11 M; 24 hours; normalized to SEAP; FIG. 9
Method: To monitor the expression of β-MHC, β-MHC promoter-luciferase reporter plasmid was constructed. This plasmid is inserted into the cardiomyocyte cultures by liposome mediated transfection and luciferase activity in cell lysates determined following incubation. The amount of luciferase actvity is directly proportional to the level of transcription of the β-MHC gene.
c. Neonatal cardiomyocytes were cultures in 6-well plates overnight following isolation. The cell monolayers were then transfected with a β-MHC promoter-luciferase reported plasmid and a control plasmid to aid data normalization (pSEAP2 Clontech Corp) using lipofectamine liposome mediated plasmid delivery. Following recovery from the transfection, the cell cultures were treated for 24 hours in the presence and absence of the PTBR agonist Ro5-4864 at 10^−12 M, 10^−11 M and 10^−10 M. The culture supernatants were then harvested for SEAP activity and cell lysates prepared for luciferase assay. […] Data are expressed as the mean+/−standard derivations of triplicate samples.

[12] = test system: neonatal rat cardiomyocytes; assay: Morphology of neonatal rat cardiomyocyte cultures (photography); format: cell-based; conditions: 10^-10 M, serum-free
Method: When cardiomyocytes undergo hypertrophy, their morphology changes quite drastically. The cells become larger and more spread out so another technique employed to monitor hypertrophic effects on cardiomyocytes is to assess their morphology and document that by photography.
d. Neonatal rat cardiomyocytes were cultures in 6-well plates overnight following isolation. […] FIGS. 10B and 10C show the same cultures following 96 hours of culture and the differenes between control and treated are quite striking.

[13] = 10^-11 M PK11195 (so in the source), Ro5-4864 10^-12-10^-10 M, 48 hour, FIG. 8
[14] = compound alone, 10^-12-10^-8 M, 48 hour incubation, FIG. 7
[15] = isolated perfused Langendorf rat heart
[16] = Ro5-4864 at higher concentrations (10^-11-10^-8 M) with 10^-10 M PK11195, FIG. 8
[17] = concentrations greater than or equal to 10^-11 M, 48 hour incubation, vs control, FIG. 7

[3H]diazepam binding to heart tissue, sequence (P30536 2-169 limits assumed): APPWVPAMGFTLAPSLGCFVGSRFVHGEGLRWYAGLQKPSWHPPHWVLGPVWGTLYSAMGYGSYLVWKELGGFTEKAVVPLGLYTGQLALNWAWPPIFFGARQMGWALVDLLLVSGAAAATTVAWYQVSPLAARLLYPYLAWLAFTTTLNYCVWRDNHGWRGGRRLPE

## OCCN(CCO)c1nc(N2CCCCC2)c2nc(N(CCO)CCO)nc(N3CCCCC3)c2n1 [dipyridamole]
[1]
  competition of [3H]diazepam binding: can compete

## CN1C(=O)CN=C(c2ccccc2)c2cc(Cl)ccc21 [diazepam]
[2]
  duration of intracellular action potential and contractility: less effective
[3]
  potentiation of the actions of adenosine: potentiates
[4]
  potentiation of the coronary vasodilator action of adenosine: potentiates
[5]; Langendorf rat heart
  contractile force: increased contractile force
[6]
  inotropic effect: transient negative inotropic effect followed by a positive inotropic response
[7]
  vagal tone: decrease

## trikontetraneuropeptide: shorter fragment of DBI (fragment 17-50) (KTKPSDEEMLFIYGHYKQATVGDINTERPGMLDF; Triakontatetraneuropeptide; UniProt P07108 17-50, looked up, fragment)
PTBR
  selectivity for PTBR relative to DBI: more selective for PTBR

## O=C1CN=C(c2ccccc2Cl)c2cc([N+](=O)[O-])ccc2N1 [clonazepam]
[2]
  duration of intracellular action potential and contractility: ineffective

## CCC(C)N(C)C(=O)c1cc2ccccc2c(-c2ccccc2Cl)n1 (centres unmarked) [PK11195, 1-(2-chlorophenyl)-N-methyl-N-(1-methylpropyl)-3-isoquinoline carboxamide]
[2]
  reversal of the effects of Ro5-4864: reversed
[8]; coincubation of Ro5-4864 with PK11195
  reversal of the Ro5-4864 hypertrophic effect: can be reversed
[9]
  effect on cardiac function: depress cardiac function
Human atrial strips
  antagonism of the depressant effect of Ro5-4864: not antagonized
[10]; [13]
  effect on the Ro5-4864 induced increase in ANP synthesis: prevented
[10]; [14]
  effect on ANP synthesis: no effects
[11]; [13]
  effect on the Ro5-4864 induced increase in protein synthesis: prevented
[11]; [14]
  effect on protein synthesis (incorporation of radiolabelled phenylalanine): no effects
[5]; [15]
  antagonism of the vasodilatory effect of Ro5-4864: did not antagonize
[6]
  antagonism of the positive inotropy induced by diazepam: antagonized

## CN1C(=O)CN=C(c2ccc(Cl)cc2)c2cc(Cl)ccc21 [Ro5-4864]
[2]
  duration of intracellular action potential and contractility: decreased
[8]; summary of Example 2
  hypertrophic response: increase in protein synthesis, ANP synthesis, transcription of the β-MHC gene reporter: three- to five-fold
β-MHC promoter
  increase in luciferase activity (transcriptional activity from the β-MHC promoter): three-fold
[12]; 24 hours of culture, FIG. 10A
  cell size / morphology of cardiomyocytes: larger cell size
[12]; 96 hours of culture, FIGS. 10B and 10C
  cell size / morphology of cardiomyocytes: much larger and adherent to the extracellular matrix
[9]
  effect on cardiac function: depress cardiac function
Human atrial strips
  depressant effect on the contraction amplitude (negative inotropic effect): 20%
[10]; [16]
  agonist induced increase in ANP synthesis in the presence of PK11195: able to overcome the inhibitory effect of PK11195
[10]; [17]
  increase in ANP synthesis: five-fold
[11]; [16]
  agonist induced increase in protein synthesis in the presence of PK11195: able to overcome the inhibitory effect of PK11195
[11]; [17]
  increase in protein synthesis (incorporation of radiolabelled phenylalanine): three-fold
[5]; [15]
  coronary flow: increase coronary flow
  heart rate and left ventricular contractility: without affecting

Reference: US6686354B2, “Agonists and antagonists of peripheral-type benzodiazepine receptors” (Scios, Inc., priority 1998, dated 2004)
